Test results taken from patent US6338800B1, “Methods and compositions using lanthanum for removing phosphates from water” (Natural Chemistry, Inc., priority 2000, dated 2002).

Source text: A test tank with a capacity of approximately 1100 liters was fitted with a HAYWARD® sand filter. The filter was approximately 0.09 square meters and contained approximately 18 kg of coarse sand. An identical tank was fitted with a HAYWARD ® cartridge filter, as is typically used with swimming pools. […] Water is then drawn through the filters using a pump. Each unit was fitted with necessary plumbing to permit test samples of reactant to be added upstream of the filter, to simulate adding the reactant to the skimmer in a full-sized pool. In this way, the reactant could be drawn through the plumbing and into or onto the filter. In this test orthophosphate, in the form of Na2HPO4, was used to simulate the increased phosphate level present in the water.
This suspension was added upstream of the filter, thus it was drawn toward and into the filter.

O=S(=O)([O-])[O-].O=S(=O)([O-])[O-].O=S(=O)([O-])[O-].[La+3].[La+3] [La2(SO4)3, lanthanum sulfate]
ratio of PO4 recovered to La added (commercial grade (approximately 99.5% purity), 0.8 g Na2HPO4 added, otherwise as Example 1): 0.35 | PO4 removed (reagent grade (99.9% pure), 3.5 g in 50 ml tap water added upstream of filter, 1135 L, approx. 800 ppb phosphate, after 2 hours pumping at approx. 75 L/min): 0.65 g | ratio of PO4 to La observed in the experiment (reagent grade (99.9% pure), 3.5 g, after 2 hours): 0.38
